Assay results reported in PubChem BioAssay (NCI).
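Results reflect a 48-hour exposure of cells in 96-well plates to compound at five concentrations. GI50: concentration for 50% inhibition of growth. TGI: total growth inhibition.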

Assays:
Test in all cases: NCI-60 cell line screen, 48 h
CCRF-CEM leukemia = system: CCRF-CEM leukemia
MCF7 breast = system: MCF7 breast
SK-MEL-5 melanoma = system: SK-MEL-5 melanoma
NCI/ADR-RES ovarian = system: NCI/ADR-RES ovarian
SF-295 CNS = system: SF-295 CNS
SNB-19 CNS = system: SNB-19 CNS
NCI-H226 lung = system: NCI-H226 lung
CAKI-1 renal = system: CAKI-1 renal
SN12C renal = system: SN12C renal
T-47D breast = system: T-47D breast

Compound | GI50 (CCRF-CEM leukemia) [µM] | TGI (CCRF-CEM leukemia) [µM] | GI50 (MCF7 breast) [µM] | TGI (MCF7 breast) [µM] | GI50 (SK-MEL-5 melanoma) [µM] | TGI (SK-MEL-5 melanoma) [µM] | GI50 (NCI/ADR-RES ovarian) [µM] | TGI (NCI/ADR-RES ovarian) [µM] | GI50 (SF-295 CNS) [µM] | TGI (SF-295 CNS) [µM] | GI50 (SNB-19 CNS) [µM] | TGI (SNB-19 CNS) [µM] | GI50 (NCI-H226 lung) [µM] | TGI (NCI-H226 lung) [µM] | GI50 (CAKI-1 renal) [µM] | TGI (CAKI-1 renal) [µM] | GI50 (SN12C renal) [µM] | TGI (SN12C renal) [µM] | GI50 (T-47D breast) [µM] | TGI (T-47D breast) [µM]
Cc1cc2c(cc1Cl)SC(=Nc1ccc(Cl)cc1)N(S(=O)(=O)c1ccc(Br)s1)S2(=O)=O | 10.1 | > 100 | 46.3 | > 100 | 13.7 | 43.3 | 12.2 | 26.5 | 24.7 | 60.5 | 13.7 | 46.4 | 14 | 47.1 | 19.5 | 42.2 | 14.1 | 32.6 |  | 
CN(c1ccccc1)c1nc(=[N+](C)C)ss1 |  | > 100 |  |  |  | > 100 |  |  |  | > 100 |  | > 100 |  | > 100 |  | > 100 |  | > 100 |  | 
O=NN(CC1(O)OCC(O)C(O)C1O)C(Cc1c[nH]c2ccccc12)C(=O)O (stereo not given) |  | > 100 |  |  |  | > 100 |  |  |  |  |  |  |  |  |  |  |  |  |  | 
CCN(CC)C(=O)c1cccc2c(OC)ccc(OC)c12 |  | > 100 |  |  |  | > 100 |  |  |  | > 100 |  | > 100 |  | > 100 |  | > 100 |  | > 100 |  | 
CCC(=O)N1C(=S)SC[C@H]1C(=O)OC |  | > 100 |  |  |  | > 100 |  |  |  | > 100 |  | > 100 |  | > 100 |  | > 100 |  | > 100 |  | 
c1ccc2[nH]c(-c3ccc(Nc4nc(N5CCCC5)nc5[nH]ncc45)cc3)nc2c1 | 0.294 | 0.967 | 0.213 | 0.619 | 1.29 | 2.56 | 0.392 | 1.47 | 0.204 | 0.477 |  |  | 1.8 | 4.01 | 1.83 | 3.48 | 1.67 | 4.15 |  | 
O=C1C2C3SC(c4cc5ccccc5cc43)C2C(=O)N1c1ccccc1 (stereo not given) |  | > 100 |  |  |  | > 100 |  |  |  | > 100 |  | > 100 |  | > 100 |  | > 100 |  | > 100 |  | 
CN1CCN(c2cc(F)c(NC3=C(Cl)C(=O)c4ncccc4C3=O)c(F)c2)CC1 |  |  | 1.07 | 2.87 | 1.66 | 3.13 | 2.4 | 6.53 | 1.68 | 3.23 | 1.94 | 3.9 | 15.7 | 39.5 | 1.27 | 2.52 | 1.7 | 3.29 | 1.82 | 4.61
CCN(CC)CC(C(=O)Nc1c(C)cccc1C)/C(C)=N\NC(=S)NN (stereo not given) |  | > 100 |  |  |  | > 100 |  |  |  | > 100 |  |  |  | > 100 |  |  |  |  |  | 
C=CCn1c(SCC(=O)Nc2ccc(C(=O)/C=C/c3cc(OC)c(OC)c(OC)c3)cc2)nnc1-c1cc(OC)c(OC)c(OC)c1 | 3.33 | > 100 | 1.83 | 10.5 | 4.27 | 16 | 15.3 | > 100 | 5.25 | > 100 | 4.3 | 73.2 |  |  |  |  | 4.74 | > 100 | 5.44 | 40.7
N#Cc1cnc2ccc(NCc3cnc[nH]3)cc2c1Nc1ccc(F)c(Cl)c1 |  |  | 20.1 | > 100 | 19 | > 100 | > 100 | > 100 | 20.1 | > 100 | 27 | > 100 | > 100 | > 100 |  |  | 4.17 | > 100 | 4.68 | > 100
Cc1cc[c]([Sb]2[O]C(CO)C(C(O)C(O)C(=O)O)[O]2)cc1 (stereo not given) | > 100 | > 100 |  |  | > 100 | > 100 | > 100 | > 100 | 61.1 | > 100 | 60.6 | > 100 | 39.9 | > 100 | > 100 | > 100 | 51.9 | > 100 | > 100 | > 100
O=C(O)C1CCCN1 (stereo not given) |  |  |  | > 100 |  | > 100 |  | > 100 |  | > 100 |  | > 100 |  | > 100 |  |  |  | > 100 |  | > 100
COc1ccc(C(O)C(c2ccc(OCc3ccccc3)cc2)c2ccc(OCc3ccccc3)cc2)cc1 (stereo not given) |  | > 100 |  |  |  | > 100 |  |  |  | > 100 |  | > 100 |  | > 100 |  | > 100 |  | > 100 |  | 
[O-]c1ccccc1C=NCCN=Cc1ccccc1[O-].[O]=[U+2]=[O] | 35.3 | > 100 |  |  | 41.7 | > 81.8 |  |  | 28.7 | > 72.3 | 23.3 | > 67.3 | > 42.5 | > 63.6 | > 46.7 | > 67.6 | 28.4 | > 63.4 |  | 
Cc1cc(C)c2c(c1)CSCc1cc(C)cc(C)c1-2 |  | 45.5 |  |  |  | 65 |  |  |  | 68.3 |  | > 100 |  | > 100 |  | 76.8 |  | > 100 |  | 
O=C1/C(=C/c2cc(O)c(O)c(O)c2)Oc2cc(O)cc(OC3OC(CO)C(O)C(O)C3O)c21 (stereo not given) |  | 44.5 |  |  |  | 31 |  |  |  | 34.3 |  | > 100 |  |  |  |  |  | 33 |  | 
CC1COS(=O)N1c1ccccc1 (stereo not given) |  | > 100 |  |  |  | > 100 |  |  |  | > 100 |  |  |  | > 100 |  |  |  |  |  | 
O=[N+]([O-])c1ccc(Cl)c(C2CC(c3cccc4ccccc34)=Nc3ccccc3S2=O)c1 (stereo not given) |  | 11.1 |  |  |  | 40 |  |  |  | 61 |  | > 53.8 |  | > 54.5 |  | > 69.8 |  | > 60.4 |  | 
O=C1c2ccccc2C(=O)N1C/C=N/NS(=O)(=O)c1cccc([N+](=O)[O-])c1 |  | > 100 |  |  |  | > 100 |  |  |  | > 100 |  | > 100 |  |  |  | > 100 |  | > 100 |  | 
O=S(=O)(c1ccccc1)N1CCC1c1ccccc1 (stereo not given) |  | > 100 |  |  |  | > 100 |  |  |  | > 100 |  | > 100 |  | > 100 |  |  |  | > 100 |  | 
CCOc1ccc2c(c1)[n+]([O-])c(C(N)=O)c(N)[n+]2[O-] |  | > 100 |  |  |  | > 100 |  |  |  | > 100 |  | > 100 |  | > 100 |  | > 100 |  | > 100 |  | 
CSC(=Nc1ccc([N+](=O)[O-])cc1C#N)NC(=O)c1ccccc1 |  | > 100 |  |  |  | > 100 |  |  |  | > 100 |  | > 100 |  | > 100 |  | > 100 |  | > 100 |  | 
CC1=NC2(C(=O)O)C3(C(=O)O)N=C(C)OC3(C(F)(F)F)C2(C(F)(F)F)O1 (stereo not given) |  | > 100 |  |  |  |  |  |  |  | > 100 |  | > 100 |  | > 100 |  | > 100 |  | > 100 |  | 
